# In US12122761B2, “2-azaspiro[3.4]octane derivatives as M4 agonists” (NOVARTIS AG, priority 2019, dated 2024):
# Key:
# [1] = molecular target: T1, Cloned human M1 receptor (CHRM1) stably expressed in HEK293 cells (Homo sapiens, UniProt P11229); assay: CHRM1 Ca++ Flux Assay (agonist mode, FDSS 7000EX); assay type: cell-based; settings: for M1 FDSS PA: Percent Activity; for EC50: geometric mean if tested more than once; for Emax: HEK293, Percent Activity, read-out: M1 FDSS PA
# T1 construct: expressed in transfected cells; host or cells: HEK293
# T1 sequence (P11229 1-460): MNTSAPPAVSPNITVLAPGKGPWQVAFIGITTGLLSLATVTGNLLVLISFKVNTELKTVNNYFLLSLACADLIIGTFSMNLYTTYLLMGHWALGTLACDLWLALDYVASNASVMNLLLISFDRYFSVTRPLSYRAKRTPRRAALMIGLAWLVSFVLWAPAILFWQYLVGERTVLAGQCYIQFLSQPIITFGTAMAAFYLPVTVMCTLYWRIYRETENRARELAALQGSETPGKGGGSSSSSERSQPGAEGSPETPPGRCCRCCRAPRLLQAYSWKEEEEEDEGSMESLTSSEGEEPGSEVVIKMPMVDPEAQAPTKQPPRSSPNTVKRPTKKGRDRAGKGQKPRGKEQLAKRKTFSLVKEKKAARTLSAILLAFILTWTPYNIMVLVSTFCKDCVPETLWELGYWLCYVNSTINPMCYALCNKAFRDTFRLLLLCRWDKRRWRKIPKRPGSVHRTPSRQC
# Summary of the method: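 Compounds tested as agonists at 11 concentrations in triplicate, with calcium traces captured over 3 minutes. Cells were HEK293 with stable human CHRM1 expression, plated overnight at 25K/well and loaded with calcium dye. Responses normalized to carbachol EC100 and fitted by four-parameter nonlinear regression.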
# [2] = molecular target: T2, human cloned CHRM2 receptor (M2_CHO cells) (Homo sapiens, UniProt P08172); assay: CHRM2 Ca++ Flux Assay (agonist mode, FDSS 7000EX); assay type: cell-based; settings: for M2 FDSS PA / Emax: Percent Activity measured to EC100 of Carbachol; for Emax: read-out: M2 FDSS PA; for EC50: agonist mode, geometric mean if tested more than once, read-out: M2 FDSS EC50
# T2 construct: expressed in transfected cells; host or cells: CHO-K1
# T2 sequence (P08172 1-466): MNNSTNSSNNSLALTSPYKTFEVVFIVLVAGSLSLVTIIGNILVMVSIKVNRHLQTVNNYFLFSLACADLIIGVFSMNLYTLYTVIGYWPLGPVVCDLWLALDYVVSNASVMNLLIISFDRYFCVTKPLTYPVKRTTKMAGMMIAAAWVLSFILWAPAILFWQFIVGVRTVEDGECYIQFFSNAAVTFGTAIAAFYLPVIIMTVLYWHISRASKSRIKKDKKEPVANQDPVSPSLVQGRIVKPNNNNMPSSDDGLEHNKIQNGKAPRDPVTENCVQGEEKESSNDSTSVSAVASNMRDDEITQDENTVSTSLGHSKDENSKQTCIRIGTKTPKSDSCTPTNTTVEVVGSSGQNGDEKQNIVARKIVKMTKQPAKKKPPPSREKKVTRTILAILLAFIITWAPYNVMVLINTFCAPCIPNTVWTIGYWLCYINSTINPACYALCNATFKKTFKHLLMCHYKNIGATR
# Summary of the method: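 Agonist-mode Ca++ flux in CHO-K1 cells stably expressing human CHRM2, dye-loaded, then held 60 min at room temperature in buffer with 20 μM ATP before compound addition; traces read over 3 minutes. Four-parameter fit of triplicate wells; percent activity relative to Carbachol EC100.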
SMILES,M1 FDSS PA [1] [%],EC50 [1] [µM],M2 FDSS PA [2] [%],Emax [1] [%],Emax [2] [%],EC50 [2] [µM]
"Fc1ccc(OC2CC3(COC3)C2)c(C2CCN([C@@H]3CCC4(C3)CN(c3nnco3)C4)CC2)c1 [Example 1B, (R)-2-(6-(4-(2-((2-oxaspiro[3.3]heptan-6-yl)oxy)-5-fluorophenyl)piperidin-1-yl)-2-azaspiro[3.4]octan-2-yl)-1,3,4-oxadiazole]",,0.322,,48,0,
"c1ccc(C2CCN([C@@H]3CCC4(C3)CN(c3nnco3)C4)CC2)c(OC[C@H]2COCCO2)c1 [Example 1C, 2-((R)-6-(4-(2-(((R)-1,4-dioxan-2-yl)methoxy)phenyl)piperidin-1-yl)-2-azaspiro[3.4]octan-2-yl)-1,3,4-oxadiazole]",,0.056,,85,15,0.017
"Cc1coc(N2CC3(CC[C@@H](N4CCC(c5ccc(F)cc5OCC(C)(C)O)CC4)C3)C2)n1 [Example 3N, (R)-1-(5-fluoro-2-(1-(2-(4-methyloxazol-2-yl)-2-azaspiro[3.4]octan-6-yl)piperidin-4-yl)phenoxy)-2-methylpropan-2-ol]",,> 25,,0,0,
"Cc1coc(N2CC3(CC[C@@H](N4CCC(c5ccccc5OCC(C)(C)O)CC4)C3)C2)n1 [Example 3O, (R)-2-methyl-1-(2-(1-(2-(4-methyloxazol-2-yl)-2-azaspiro[3.4]octan-6-yl)piperidin-4-yl)phenoxy)propan-2-ol]",,> 25,,0,0,
"COc1ccccc1C1CCN([C@@H]2CCC3(C2)CN(c2ncon2)C3)CC1 [Example 4A, (R)-3-(6-(4-(2-methoxyphenyl)piperidin-1-yl)-2-azaspiro[3.4]octan-2-yl)-1,2,4-oxadiazole]",,0.015,,83,21,0.019
"COc1ccccc1C1CCN([C@@H]2CCC3(C2)CN(c2cncnc2)C3)CC1 [Example 5A, (R)-6-(4-(2-methoxyphenyl)piperidin-1-yl)-2-(pyrimidin-5-yl)-2-azaspiro[3.4]octane]",,0.105,,64,0,
"CC(C)(O)COc1ccccc1C1CCN([C@@H]2CCC3(C2)CN(c2cncnc2)C3)CC1 [Example 5B, (R)-2-methyl-1-(2-(1-(2-(pyrimidin-5-yl)-2-azaspiro[3.4]octan-6-yl)piperidin-4-yl)phenoxy)propan-2-ol]",,0.191,,35,0,
"Cc1ncncc1N1CC2(CC[C@@H](N3CCC(c4ccccc4OCC(C)(C)O)CC3)C2)C1 [Example 5C, (R)-2-methyl-1-(2-(1-(2-(4-methylpyrimidin-5-yl)-2-azaspiro[3.4]octan-6-yl)piperidin-4-yl)phenoxy)propan-2-ol]",,0.42,,69,0,
"COc1ccccc1C1CCN([C@@H]2CCC3(C2)CN(c2ccc(C)nc2)C3)CC1 [Example 5D, (R)-6-(4-(2-methoxyphenyl)piperidin-1-yl)-2-(6-methylpyridin-3-yl)-2-azaspiro[3.4]octane]",,> 25,,0,0,

# The next lines start with the values.
M1 FDSS PA [1] [%],EC50 [1] [µM],M2 FDSS PA [2] [%],Emax [1] [%],Emax [2] [%],EC50 [2] [µM],SMILES
9,> 25,0,,,,"O=C(N1CC2(CC[C@@H](N3CCC(c4cc(F)ccc4OC4CC5(COC5)C4)CC3)C2)C1)C1(F)CC1 (single isomer, unassigned) [Example 11A, (R)-(6-(4-(2-((2-oxaspiro[3.3]heptan-6-yl)oxy)-5-fluorophenyl)piperidin-1-yl)-2-azaspiro[3.4]octan-2-yl)(1-fluorocyclopropyl)methanone or (S)-(6-(4-(2-((2-oxaspiro[3.3]heptan-6-yl)oxy)-5-fluorophenyl)piperidin-1-yl)-2-azaspiro[3.4]octan-2-yl)(1-fluorocyclopropyl)methanone]"
9,0.03,0,,,,"O=C(N1CC2(CC[C@@H](N3CCC(c4cc(F)ccc4OC4CC5(COC5)C4)CC3)C2)C1)C1(F)CC1 (single isomer, unassigned) [Example 11B, (R)-(6-(4-(2-((2-oxaspiro[3.3]heptan-6-yl)oxy)-5-fluorophenyl)piperidin-1-yl)-2-azaspiro[3.4]octan-2-yl)(1-fluorocyclopropyl)methanone or (S)-(6-(4-(2-((2-oxaspiro[3.3]heptan-6-yl)oxy)-5-fluorophenyl)piperidin-1-yl)-2-azaspiro[3.4]octan-2-yl)(1-fluorocyclopropyl)methanone]"
1,> 25,0,,,,"O=C(N1CC2(CC[C@@H](N3CCC(c4ccccc4OC4CC5(COC5)C4)CC3)C2)C1)C1(F)CC1 (single isomer, unassigned) [Example 11C, (R)-(6-(4-(2-((2-oxaspiro[3.3]heptan-6-yl)oxy)phenyl)piperidin-1-yl)-2-azaspiro[3.4]octan-2-yl)(1-fluorocyclopropyl)methanone or (S)-(6-(4-(2-((2-oxaspiro[3.3]heptan-6-yl)oxy)phenyl)piperidin-1-yl)-2-azaspiro[3.4]octan-2-yl)(1-fluorocyclopropyl)methanone]"
1,> 25,0,,,,"O=C(N1CC2(CC[C@@H](N3CCC(c4ccccc4OC4CC5(COC5)C4)CC3)C2)C1)C1(F)CC1 (single isomer, unassigned) [Example 11D, (R)-(6-(4-(2-((2-oxaspiro[3.3]heptan-6-yl)oxy)phenyl)piperidin-1-yl)-2-azaspiro[3.4]octan-2-yl)(1-fluorocyclopropyl)methanone or (S)-(6-(4-(2-((2-oxaspiro[3.3]heptan-6-yl)oxy)phenyl)piperidin-1-yl)-2-azaspiro[3.4]octan-2-yl)(1-fluorocyclopropyl)methanone]"
,> 25,,0,0,,"COc1ccccc1C1CCN([C@@H]2CCC3(C2)CN(c2cnc(C)nc2)C3)CC1 [Example 5E, (R)-6-(4-(2-methoxyphenyl)piperidin-1-yl)-2-(2-methylpyrimidin-5-yl)-2-azaspiro[3.4]octane]"
,3.76,,7,26,,"COc1ccccc1C1CCN([C@@H]2CCC3(C2)CN(c2cncc(F)c2)C3)CC1 [Example 5F, (R)-2-(5-fluoropyridin-3-yl)-6-(4-(2-methoxyphenyl)piperidin-1-yl)-2-azaspiro[3.4]octane]"
,> 25,,0,0,,"COc1ccccc1C1CCN([C@@H]2CCC3(C2)CN(c2cncc(C)n2)C3)CC1 [Example 5G, (R)-6-(4-(2-methoxyphenyl)piperidin-1-yl)-2-(6-methylpyrazin-2-yl)-2-azaspiro[3.4]octane]"
,0.048,,50,0,,"COc1ccccc1C1CCN([C@@H]2CCC3(C2)CN(c2cnccn2)C3)CC1 [Example 5H, (R)-6-(4-(2-methoxyphenyl)piperidin-1-yl)-2-(pyrazin-2-yl)-2-azaspiro[3.4]octane]"
,0.272,,55,49,13.2,"COc1ccccc1C1CCN([C@@H]2CCC3(C2)CN(c2nccnc2C(F)(F)F)C3)CC1 [Example 5I, (R)-6-(4-(2-methoxyphenyl)piperidin-1-yl)-2-(3-(trifluoromethyl)pyrazin-2-yl)-2-azaspiro[3.4]octane]"
,0.1,,60,0,,"COc1ccccc1C1CCN([C@@H]2CCC3(C2)CN(c2nccnc2C)C3)CC1 [Example 5J, (R)-6-(4-(2-methoxyphenyl)piperidin-1-yl)-2-(3-methylpyrazin-2-yl)-2-azaspiro[3.4]octane]"
,0.284,,54,18,,"COc1ccccc1C1CCN([C@@H]2CCC3(C2)CN(c2cccnc2)C3)CC1 [Example 5K, (R)-6-(4-(2-methoxyphenyl)piperidin-1-yl)-2-(pyridin-3-yl)-2-azaspiro[3.4]octane]"
